# Assay results published in patent US20060040901A1, “Derivatives of 1,3-cyclic propandiol phosphate and their action as cell stimulants” (YEDA RESEARCH AND DEVELOPMENT CO. Ltd., priority 2002, published 2006).
# Columns and labels:
# PC12 cells [1] = test: Induction of neuronal outgrowth / neuronal differentiation in PC-12 cells; assay type: cell-based, rat; settings: for neuronal differentiation / axonal outgrowth: data not shown; for neural outgrowth: 5 μM, after 8 days, microscope, FIG. 2
# Procedure: (§1) In the presence of nerve growth factor these cells differentiate to neuronal cells. PC12 cells originated from rat pheochromocytoma were grown as monolayers in Eagle's medium (EM) supplemented with 10% fetal calf serum, 50 μg/ml gentamicin and 5 mM glutamine, in a humidified incubator buffered with 5% CO2, at 37° C. The culture medium is changed every four days and the cells are passaged every eight days and performed confluent monolayers (1.5×10^6 in a 10 cm plate or 10^5 cells per well in 24 wells plate). PC12 cells are originally round cells which, following several days in the presence of nerve growth factor (NGF) process nerves. Upon withdrawal of the NGF, the nerves retract and a process of apoptosis is initiated in the cells.
# PC12 cells were grown in culture as explained above. The cells were divided into two groups and different compounds were added. To the first were added 5 μM 1,3-cyclic propandiol phosphate-5-caproylamido, while as a control to the second portion was added NGF. After a period of 8 days the two groups of PC12 cells were inspected by microscope.
# CHO cells = test: Cell signaling analysis: tyrosine phosphorylation in CHO cells; assay type: cell-based, Chinese Hamster; settings: for intracellular tyrosine phosphorylation: CHO cells, data not shown
# Procedure: CHO cultures were grown as described above for PC12 cells. The cultures were divided into two groups and different compounds were added, followed by a period of incubation of from 1 to 30 minutes. Thus one CHO culture was incubated with 5 μM of 1,3-cyclic propandiol phosphate-2-methylamino at 37° C., the control being a similar CHO culture incubated with 1,3-cyclic glycerphosphate under the same conditions. […] In particular it was detected in a series of proteins with molecular weight of ≈35 kDa, ≈45 kDa, ≈60-70 kDa. as shown in FIG. 1.
# Rat hippocampal neurons = test: Neuronal morphology of cultured hippocampal neurons (stage 3); assay type: cell-based; settings: three days
# Procedure: Rat hippocampal neurons were cultured at low density in defined medium as described previously (Brann et al., 2002, J Bio Chem 277(12): 9812-9818), with slight modifications. Briefly, the dissected hippocampi of embryonic day 18 rats were dissociated by trypsinization (0.25% w/v, for 15 min at 37° C.). The tissue was washed in Mg^2+/Ca^2+-free Hanks' balanced salt solution (Invitrogen) and dissociated by repeated passage through a constricted Pasteur pipette. Cells were plated in minimal essential medium with 10% horse serum at a density of 25,000 cells per 13-mm glass cover slips that had been precoated with poly-L-lysine (1 mg/ml). After 2-4 hr, cover slips were transferred into 24-well plates (Nunc), containing B27 supplemented Neurobasal medium (Brewer, G. et al., 1993, J Neurosci Res 35: 567-576), and cultures were maintained in this defined medium throughout the experiment.
# For morphological analysis, cover slips were removed from the 24-well plates on the 3rd day of culture. Neurons were fixed in 1% (v/v) glutaraldehyde in phosphate-buffered-saline for 20 min at 37° C., and mounted for microscopic examination in 50% glycerol in phosphate-buffered-saline. Neurons were examined by phase contrast microscopy using an Achroplan 32x/0.4 n.a. phase 2 objective of a Zeiss Axiovert 35 microscope. Neuronal growth was analyzed based on established developmental criteria of cultured hippocampal neurons (Schwarz et al., 1995, J Bio Chem 270(18): 10990-10998; Brann et al., 1999, J Neurosci 19(19): 8199-8206) as follows: (i) Only neurons at stage 3 were analyzed in this study. […] (iii) Only those cells in which the whole axon plexus could be unambiguously delineated were measured. (iv) The number of axonal branch points per cell were measured. […]
# Images of neurons were acquired using NIH image (version 1.62) software. The analyze mode was set to a proportional ratio scale of pixel to μm, the outline of the neuron was copied using the freehand line tool, and the line length measured and analyzed according to the morphological criteria outlined above. […]
# PC12 cells [2] = test: Rescue of PC12 cells from NGF deprivation (nerve rescue); assay type: cell-based, rat; settings: data not shown
# Procedure: as §1
# Similar effects were observed (data not shown) for the following compounds. […] 2-Benzyloxy 1,3-chloropropanediol phosphate (Example 16 above) was dissolved in ethanol and from there introduced by 1:1000 dilution into PC12 cultures.
compound,measurement,setting,value
"2-caproimido 1,3-chloropropanediol phosphate [Example 17]",neuronal differentiation / axonal outgrowth,PC12 cells [1],neuronal differentiation
same,intracellular tyrosine phosphorylation,CHO cells,induced tyrosine phosphorylation
"CCCCCC(=O)NC1COP(=O)(O)OC1 (stereo not shown) [Example 4, 1,3-cyclic propandiol phosphate-5-caproylamido]",neural outgrowth,PC12 cells [1],promoted neural outgrowth
"CNC1COP(=O)(O)OC1 (stereo not shown) [Example 7, 1,3-cyclic propandiol phosphate-2-methylamino]",exposure time after which augmented tyrosine phosphorylation was noticed,"CHO cells; CHO culture, 5 μM, 37° C.",≤ 1 min
same,"tyrosine phosphorylation of proteins (≈35 kDa, ≈45 kDa, ≈60-70 kDa)","CHO cells; CHO culture, 5 μM, 37° C., incubation 1 to 30 minutes, control 1,3-cyclic glycerphosphate, FIG. 1",Augmented tyrosine phosphorylation
"O=P1(O)OCCCO1 [Example 9, 1,3-cyclic propanediol phosphate]",neuronal differentiation / axonal outgrowth,PC12 cells [1],triggering axonal outgrowth
same,total elongation of axon plexus compared to non-treated cells,"Rat hippocampal neurons; pyramidal rat embryo hippocampal cells, 5 μM, FIG. 3",32%
same,increase in length of the longest axon (main axon) compared to non-treated cells,"Rat hippocampal neurons; pyramidal rat embryo hippocampal cells, 5 μM, FIG. 4",about 20%
same,increase in axonal branch points per cell compared with non-treated cells,"Rat hippocampal neurons; rat embryo hippocampal cells, FIG. 5",about 47%
"CC1COP(=O)(O)OC1 (stereo not shown) [Example 10, 2-methyl 1,3-cyclic propanediol phosphate]",neuronal differentiation / axonal outgrowth,PC12 cells [1],triggering axonal outgrowth
"NP1(=O)OCCCO1 [Example 13, 1,3-cyclic propanediol phosphoamidate]",neuronal differentiation / axonal outgrowth,PC12 cells [1],did not induce neuronal differentiation
same,intracellular tyrosine phosphorylation,CHO cells,capable of inducing tyrosine phosphorylation
same,rescue from NGF deprivation (nerve rescue),PC12 cells [2],did rescue them from NGF deprivation
"CCNP1(=O)OCCCO1 [Example 14, 1,3-cyclic propanediol N-ethyl phosphoamidate]",neuronal differentiation / axonal outgrowth,PC12 cells [1],did not induce neuronal differentiation
same,intracellular tyrosine phosphorylation,CHO cells,promoted tyrosine phosphorylation
"NGF: nerve growth factor, in whose presence PC12 cells differentiate to neuronal cells",neural outgrowth,PC12 cells [1],did not exhibit such promotion of neural outgrowth
